The target in the assay is T1, histamine 3 receptor (H3R) (Homo sapiens, UniProt Q9Y5N1).
T1 construct: expressed in transfected cells; host or cells: CHO cells (HR3-CHO)
T1 sequence (Q9Y5N1 whole entry): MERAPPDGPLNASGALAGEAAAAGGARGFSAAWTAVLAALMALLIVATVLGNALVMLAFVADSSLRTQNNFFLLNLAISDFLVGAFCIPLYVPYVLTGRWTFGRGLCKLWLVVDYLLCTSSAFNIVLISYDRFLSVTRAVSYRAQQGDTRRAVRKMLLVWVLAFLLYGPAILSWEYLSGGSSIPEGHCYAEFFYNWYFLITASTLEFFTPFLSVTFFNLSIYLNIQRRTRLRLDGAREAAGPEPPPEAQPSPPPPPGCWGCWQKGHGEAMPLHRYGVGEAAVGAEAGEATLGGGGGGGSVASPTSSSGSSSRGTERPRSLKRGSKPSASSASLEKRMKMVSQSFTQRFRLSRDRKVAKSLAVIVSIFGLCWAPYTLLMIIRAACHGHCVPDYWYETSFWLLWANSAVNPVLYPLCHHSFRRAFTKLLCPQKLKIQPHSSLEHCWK
Put plainly: Competition binding assay with 3H-(R)α-methylhistamine on membranes of the human HR3-CHO cell line. The conditions noted are these: membrane of the human HR3-CHO cell line; 3H(R)α-Methylhistamine 1 nM; Ki calculated from IC50 by Cheng-Prusoff equation. As for the experimental part:
Binding Assay with ^3H-(R)α-methylhistamine
Saturation binding experiments were performed using HR3-CHO membranes prepared as described in Takahashi, K, Tokita, S., Kotani, H. (2003) J. Pharmacol. Exp. Therapeutics 307, 213-218.
An appropriate amount of membrane (60 to 80 μg protein/well) was incubated with increasing concentrations of ^3H(R)α-Methylhistamine di-hydrochloride (0.10 to 10 nM). Non specific binding was determined using a 200 fold excess of cold (R)α-Methylhistamine dihydrobromide (500 nM final concentration). The incubation was carried out at room temperature (in deep-well plates shaking for three hours). The final volume in each well was 250 μl. The incubation was followed by rapid filtration on GF/B filters (pre-soaked with 100 μl of 0.5% PEI in Tris 50 mM shaking at 200 rpm for two hours). The filtration was made using a cell-harvester and the filter plates were then washed five times with ice cold washing buffer containing 0.5 M NaCl. After harvesting, the plates were dried at 55° C. for 60 min, then we added scintillation fluid (Microscint 40, 40 microl in each well) and the amount of radioactivity on the filter was determined in Packard top-counter after shaking the plates for two hours at 200 rpm at room temperature.
Binding Buffer: 50 mM Tris-HCl pH 7.4 and 5 mM MgCl2x6H2O pH 7.4. Washing Buffer: 50 mM Tris-HCl pH 7.4 and 5 mM MgCl2x6H2O and 0.5 M NaCl pH 7.4.
Indirect measurement of affinity of H3R inverse agonists: twelve increasing concentrations (ranging from 10 μM to 0.3 nM) of the selected compounds were always tested in competition binding experiments using membrane of the human HR3-CHO cell line. An appropriate amount of protein, e.g. approximately 500 cpm binding of RAMH at Kd, were incubated for 1 hour at room temperature in 250 μl final volume in 96-well plates in presence of ^3H(R)α-Methylhistamine (1 nM final concentration=Kd). […]
All compounds were tested at a single concentration in duplicates. […] Ki's were calculated from IC50 based on Cheng-Prusoff equation (Cheng, Y, Prusoff, W H (1973) Biochem Pharmacol 22, 3099-3108).
As to `O=C(c1cc2cc(N3CCN(C4CCCC4)CC3)ncc2[nH]1)N1CCCC1` [Example 1, [5-(4-Cyclopentyl-piperazin-1-yl)-1H-pyrrolo[2,3-c]pyridin-2-yl]-pyrrolidin-1-yl-methanone], the Ki (commonly the dissociation constant of the complex between target and ligand, obtained from inhibition or displacement) is 33 nM.
Consider `CCCNC(=O)c1cc2cc(N3CCN(C4CCCC4)CC3)ncc2[nH]1` [Example 13, 5-(4-cyclopentyl-piperazin-1-yl)-1H-pyrrolo[2,3-c]pyridine-2-carboxylic acid propylamide], for which the Ki is 27.4 nM.
The figure for `CC(C)N1CCN(c2cc3cc(C(=O)N4CCC(F)(F)CC4)[nH]c3cn2)CC1` [Example 27, (4,4-difluoro-piperidin-1-yl)-[5-(4-isopropyl-piperazin-1-yl)-1H-pyrrolo[2,3-c]pyridin-2-yl]-methanone] is 63.1 nM.

The values are drawn from patent US7348323B2, “Pyrrolo [2,3-c] pyridine derivatives” (Hoffmann-La Roche Inc., priority 2005, dated 2008).
